Results: US3960834A, “Method for preparing 3-(methylmercaptol) propylaminobleomycin” (priority 1973, dated 1976)
Where two headings read alike, the source gives them in different places.

Experiments:
[1] = tested on: Mycobacterium smegmatis 607; experiment: antimicrobial activity against Mycobacterium smegmatis 607; format: cell-based
[2] = tested on: Ehrlich ascites carcinoma cells; conditions: for Mean surviving days: intraperitoneally once a day for 10 days, observed up to 50 days; for ED50: Table 3, maximum dose level at which they survive 100 to 200% of the survival days for the control; for LD50 /ED50 = Index: mouse, in vivo, ip
ICR mouse bearing cancer = tested on: ICR mouse bearing cancer
Procedure: Mice of ICR/JCL strain (male 5 weeks old, five for one group) are inoculated with Ehrlich ascites carcinoma cells in a dose of 2 millions/mouse.
LD50 is calculated by Behrens-Karber's method from the group poisoned at high dose levels.

solubility = format: physicochemical
[3] = tested on: Ehrlich ascites carcinoma cells; experiment: animal or person; conditions: Mus musculus, ip
[4] = ICR mouse bearing cancer, daily intraperitoneal administration for 10 days
[5] = Table 3, Behrens-Karber's method, from the group poisoned at high dose levels

Molecule | antimicrobial activity (potency) [1] | Mean surviving days ([2]; 0.19 mg/kg) [days] | Mean surviving days ([2]; 0.39 mg/kg) [days] | Mean surviving days ([2]; 0.78 mg/kg) [days] | Mean surviving days ([2]; 1.56 mg/kg) [days] | Mean surviving days ([2]; 3.12 mg/kg) [days] | Mean surviving days ([2]; 6.25 mg/kg) [days] | Mean surviving days ([2]; 12.5 mg/kg) [days] | Mean surviving days ([2]; 25 mg/kg) [days] | ED50 [2] | LD50 /ED50 = Index [2] | LD50 (ICR mouse bearing cancer; [4]) [mg/kg] | LD50 (ICR mouse bearing cancer; [5]) | solubility in organic solvents (solubility; ethanol, propanol, butanol, ethyl acetate, ether, acetone, petroleum ether, benzene, and toluene) | solubility in water and methanol (solubility; water and methanol) | toxicity compared with bleomycin A2 (ICR mouse bearing cancer; from LD50, ICR mouse bearing cancer, daily intraperitoneal for 10 days) | ED50 [3] [mg/kg]
3-(S,S-dimethylmercapto)propylaminobleomycin [Bleomycin A2, reference compound] | 1000 mcg potency/mg | 13.6 | 15.4 | 17.2 | > 33 | > 36 | > 28.4 | 25 | 10.8 | 0.78 | 12 | 12.5 | 9.4 | – | – | – | –
CSCCCNC(=O)c1csc(-c2csc(CCNC(=O)[C@@H](NC(=O)[C@@H](C)[C@H](O)[C@@H](C)NC(=O)[C@@H](NC(=O)c3nc([C@H](CC(N)=O)NC[C@H](N)C(N)=O)nc(N)c3C)[C@@H](O[C@@H]3O[C@@H](CO)[C@@H](O)[C@H](O)[C@@H]3O[C@H]3O[C@H](CO)[C@@H](O)[C@H](OC(N)=O)[C@@H]3O)c3cnc[nH]3)[C@@H](C)O)n2)n1 [Demethylbleomycin A2, 3-(methylmercapto)propylaminobleomycin] | 2,458 mcg potency/mg | 20.2 | 24.0 | 31.2 | 28.6 | 34.6 | 49 | 40.5 | 29.0 | 0.78 | 23 | 22.5 | 18.0 | insoluble | soluble | decreased to about half as much | –
CO[C@@]12[C@H](COC(N)=O)C3=C(C(=O)C(C)=C(N)C3=O)N1C[C@@H]1N[C@@H]12 [Mitomycin C] | – | – | – | – | – | – | – | – | – | – | – | – | – | – | – | – | 0.39
